How the values were obtained:
Assay type in all cases: in vivo
[1] = tested on: waterhemp_RES1 (ALS & Triazine resistant common waterhemp, Amaranthus rudis); test: Test E greenhouse herbicide test, postemergence
Outline: (§1)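 Postemergence spray of formulated test chemicals onto resistant waterhemp at 1- to 4-leaf stage (2–18 cm tall), grown in peat/vermiculite potting medium. Kept in greenhouse 14 to 21 d, then visually rated against untreated controls on a 0–100 scale (0 no effect, 100 complete control).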

[2] = tested on: waterhemp_RES2 (ALS & HPPD resistant common waterhemp, Amaranthus rudis); test: Test E greenhouse herbicide test, postemergence
Outline: as §1

soybean (Glycine max) = test: Test E greenhouse herbicide test, pre- and postemergence
Outline: (§2)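 Visual ratings, 0 for no effect up to 100 for complete control, were taken relative to controls 14 to 21 d after greenhouse treatment. Applications used a surfactant-containing non-phytotoxic solvent formulation, sprayed either preemergence on silt loam-sown seed or postemergence on 1- to 4-leaf plants 2-18 cm tall in peat-based potting medium.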

[3] = tested on: dayflower (Virginia (VA) dayflower, Commelina virginica); test: as above
Outline: as §2

[4] = tested on: crabgrass, Brazilian (Brazilian crabgrass, Digitaria horizontalis); test: as above
Outline: as §2

[5] = tested on: sandbur (southem sandbur, Cenchrus echinatus); test: as above
Outline: as §2

[6] = tested on: crabgrass, large (large crabgrass, Digitaria sanguinalis); test: as above; conditions: Preemergence
Outline: as §2

[7] = tested on: goosegrass (Eleusine indica); test: as above; conditions: Preemergence
Outline: as §2

[8] = tested on: horseweed (Conyza canadensis); test: as above
Outline: as §2

kochia (Kochia scoparia) = test: as above
Outline: as §2

[9] = tested on: Italian ryegrass (Lolium multiflorum); test: as above
Outline: as §2

[10] = tested on: beggarticks (hairy beggarticks, Bidens pilosa); test: as above
Outline: as §2

[11] = tested on: pigweed, palmer (palmer pigweed, Amaranthus palmeri); test: as above
Outline: as §2

[12] = tested on: barnyardgrass (Echinochloa crus-galli); test: as above
Outline: as §2

[13] = tested on: ragweed (common ragweed, Ambrosia elatior); test: as above
Outline: as §2

[14] = 31 g ai/ha, visual, scale 0 no effect to 100 complete control
[15] = 62 g ai/ha, scale 0 to 100 (0 no effect, 100 complete control)
[16] = 125 g ai/ha, scale 0 to 100 (0 no effect, 100 complete control)
[17] = 250 g ai/ha, scale 0 to 100 (0 no effect, 100 complete control)
[18] = 62 g ai/ha, Postemergence, scale 0 to 100 (0 no effect, 100 complete control)
[19] = 62 g ai/ha, Preemergence, scale 0 to 100 (0 no effect, 100 complete control)
[20] = 125 g ai/ha, Postemergence, scale 0 to 100 (0 no effect, 100 complete control)
[21] = 125 g ai/ha, Preemergence, scale 0 to 100 (0 no effect, 100 complete control)
[22] = 250 g ai/ha, Postemergence, scale 0 to 100 (0 no effect, 100 complete control)
[23] = Postemergence, 31 g ai/ha, visual, scale 0 no effect to 100 complete control
[24] = Preemergence, 31 g ai/ha, scale 0 to 100, 0 no effect, 100 complete control
[25] = Preemergence, 250 g ai/ha, visual, scale 0 no effect to 100 complete control
[26] = 31 g ai/ha, scale 0 to 100, 0 no effect, 100 complete control
[27] = 250 g ai/ha, visual, scale 0 no effect to 100 complete control

## Cc1ccc2ccccc2c1-c1c(OC(=O)OC(C)C)c(C)nn(C)c1=O [Compound 72]
[1]; [14]
  Plant response rating, Waterhemp_RES1: 60
[1]; [15]
  Plant response rating, Waterhemp_RES1: 80
[1]; [16]
  Plant response rating, Waterhemp_RES1: 80
[1]; [17]
  Plant response rating, Waterhemp_RES1: 90
[2]; [14]
  Plant response rating, Waterhemp_RES2: 35
[2]; [15]
  Plant response rating, Waterhemp_RES2: 40
[2]; [16]
  Plant response rating, Waterhemp_RES2: 50
[2]; [17]
  Plant response rating, Waterhemp_RES2: 65
Soybean (Glycine max); [18]
  Plant response rating, Soybean: 30
Soybean (Glycine max); [19]
  Plant response rating, Soybean: 0
Soybean (Glycine max); [20]
  Plant response rating, Soybean: 30
Soybean (Glycine max); [21]
  Plant response rating, Soybean: 0
Soybean (Glycine max); [22]
  Plant response rating, Soybean: 50
Soybean (Glycine max); [23]
  Plant response rating, Soybean: 25
Soybean (Glycine max); [24]
  Plant response rating, Soybean: 0
Soybean (Glycine max); [25]
  Plant response rating, Soybean: 15
[3]; [18]
  Plant response rating, Dayflower, VA: 65
[3]; [19]
  Plant response rating, Dayflower, VA: 15
[3]; [20]
  Plant response rating, Dayflower, VA: 80
[3]; [21]
  Plant response rating, Dayflower, VA: 50
[3]; [22]
  Plant response rating, Dayflower, VA: 80
[3]; [23]
  Plant response rating, Dayflower, VA: 60
[3]; [24]
  Plant response rating, Dayflower, VA: 0
[3]; [25]
  Plant response rating, Dayflower, VA: 50
[4]; [18]
  Plant response rating, Crabgrass, Brazil: 40
[4]; [19]
  Plant response rating, Crabgrass, Brazil: 60
[4]; [20]
  Plant response rating, Crabgrass, Brazil: 60
[4]; [21]
  Plant response rating, Crabgrass, Brazil: 90
[4]; [22]
  Plant response rating, Crabgrass, Brazil: 70
[4]; [23]
  Plant response rating, Crabgrass, Brazil: 50
[4]; [24]
  Plant response rating, Crabgrass, Brazil: 50
[4]; [25]
  Plant response rating, Crabgrass, Brazil: 98
[5]; [18]
  Plant response rating, Sandbur: 70
[5]; [19]
  Plant response rating, Sandbur: 35
[5]; [20]
  Plant response rating, Sandbur: 75
[5]; [21]
  Plant response rating, Sandbur: 60
[5]; [22]
  Plant response rating, Sandbur: 80
[5]; [23]
  Plant response rating, Sandbur: 60
[5]; [24]
  Plant response rating, Sandbur: 0
[5]; [25]
  Plant response rating, Sandbur: 70
[6]; [15]
  Plant response rating, Crabgrass, Large: 0
[6]; [16]
  Plant response rating, Crabgrass, Large: 30
[6]; [26]
  Plant response rating, Crabgrass, Large: 0
[6]; [27]
  Plant response rating, Crabgrass, Large: 90
[7]; [15]
  Plant response rating, Goosegrass: 40
[7]; [16]
  Plant response rating, Goosegrass: 60
[7]; [26]
  Plant response rating, Goosegrass: 20
[7]; [27]
  Plant response rating, Goosegrass: 80
[8]; [18]
  Plant response rating, Horseweed: 60
[8]; [19]
  Plant response rating, Horseweed: 100
[8]; [20]
  Plant response rating, Horseweed: 75
[8]; [21]
  Plant response rating, Horseweed: 100
[8]; [22]
  Plant response rating, Horseweed: 70
[8]; [23]
  Plant response rating, Horseweed: 60
[8]; [24]
  Plant response rating, Horseweed: 0
[8]; [25]
  Plant response rating, Horseweed: 100
Kochia (Kochia scoparia); [18]
  Plant response rating, Kochia: 98
Kochia (Kochia scoparia); [19]
  Plant response rating, Kochia: 35
Kochia (Kochia scoparia); [20]
  Plant response rating, Kochia: 90
Kochia (Kochia scoparia); [21]
  Plant response rating, Kochia: 60
Kochia (Kochia scoparia); [22]
  Plant response rating, Kochia: 90
Kochia (Kochia scoparia); [23]
  Plant response rating, Kochia: 70
Kochia (Kochia scoparia); [24]
  Plant response rating, Kochia: 25
Kochia (Kochia scoparia); [25]
  Plant response rating, Kochia: 98
[9]; [18]
  Plant response rating, Ryegrass, Italian: 80
[9]; [19]
  Plant response rating, Ryegrass, Italian: 90
[9]; [20]
  Plant response rating, Ryegrass, Italian: 85
[9]; [21]
  Plant response rating, Ryegrass, Italian: 100
[9]; [22]
  Plant response rating, Ryegrass, Italian: 90
[9]; [23]
  Plant response rating, Ryegrass, Italian: 80
[9]; [24]
  Plant response rating, Ryegrass, Italian: 90
[9]; [25]
  Plant response rating, Ryegrass, Italian: 100
[10]; [18]
  Plant response rating, Beggarticks: 100
[10]; [19]
  Plant response rating, Beggarticks: 80
[10]; [20]
  Plant response rating, Beggarticks: 98
[10]; [21]
  Plant response rating, Beggarticks: 98
[10]; [22]
  Plant response rating, Beggarticks: 98
[10]; [23]
  Plant response rating, Beggarticks: 90
[10]; [24]
  Plant response rating, Beggarticks: 70
[10]; [25]
  Plant response rating, Beggarticks: 100
[11]; [18]
  Plant response rating, Pigweed, Palmer: 50
[11]; [19]
  Plant response rating, Pigweed, Palmer: 75
[11]; [20]
  Plant response rating, Pigweed, Palmer: 60
[11]; [21]
  Plant response rating, Pigweed, Palmer: 95
[11]; [22]
  Plant response rating, Pigweed, Palmer: 75
[11]; [23]
  Plant response rating, Pigweed, Palmer: 50
[11]; [24]
  Plant response rating, Pigweed, Palmer: 35
[11]; [25]
  Plant response rating, Pigweed, Palmer: 90
[12]; [18]
  Plant response rating, Barnyardgrass: 40
[12]; [19]
  Plant response rating, Barnyardgrass: 30
[12]; [20]
  Plant response rating, Barnyardgrass: 40
[12]; [21]
  Plant response rating, Barnyardgrass: 50
[12]; [22]
  Plant response rating, Barnyardgrass: 50
[12]; [23]
  Plant response rating, Barnyardgrass: 30
[12]; [24]
  Plant response rating, Barnyardgrass: 0
[12]; [25]
  Plant response rating, Barnyardgrass: 50
[13]; [18]
  Plant response rating, Ragweed: 90
[13]; [19]
  Plant response rating, Ragweed: 90
[13]; [20]
  Plant response rating, Ragweed: 90
[13]; [21]
  Plant response rating, Ragweed: 90
[13]; [22]
  Plant response rating, Ragweed: 95
[13]; [23]
  Plant response rating, Ragweed: 85
[13]; [24]
  Plant response rating, Ragweed: 0
[13]; [25]
  Plant response rating, Ragweed: 100

— patent publication US10597388B2, “Pyridazinone herbicides” (FMC CORPORATION, priority 2014, dated 2020)
